Among the data in the supplement of paper PMC4862054 are normalised response values, retold here.

Common to all, as to assay: normalised response (% of control), CellTiter-Glo; higher = more viable cells (100 = DMSO, 0 = benzethonium chloride kill control)
What all share (conditions): incubation time: 72 h

Assay [1] concerns HCC1937. The gist of the method: (§1)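 Breast cancer cell lines (20 µl suspension) were seeded into 384-well plates holding compound at 5 concentrations in 10-fold steps over a compound-specific 10,000-fold range, then incubated 72 h. CellTox Green fluorescence (485/520 nm) was read first, then CellTiter-Glo luminescence after 10 min at room temperature. Each plate was normalised to 0.1 % DMSO (100) and a positive kill control (0). Each value is the normalised signal at a single concentration of the series.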

In assay [2] the test system is CAL-85-1. The gist of the method:
as §1

Assay [3] relates to CAL-51. The essentials: as §1
Assay [4] has as its system CAL-120. The gist of the method:
as §1

Assay [5] relates to HDQ-P1. The gist of the method:
as §1

Assay [6] concerns DU-4475. The gist of the method:
as §1

Assay [7] relates to CAL-148. The gist of the method:
as §1

Assay [8] deals with MDA-MB-453. The essentials: as §1
The subject of assay [9] is MDA-MB-231. The gist of the method:
as §1

The test system of assay [10] is MFM-223. The gist of the method: as §1
For assay [11], the system named is BT-549. The essentials:
as §1

Assay [12] deals with HCC1143. The essentials: as §1
Assay [13] relates to MDA-MB-468. The essentials: as §1
Assay [14] relates to Hs578T. The essentials:
as §1

The subject of assay [15] is MCF-10A. The essentials: as §1
In assay [16] the test system is HCC1599. The gist of the method: as §1
For assay [17], the system named is MDA-MB-436. The essentials: as §1
Assay [18] relates to SK-BR-3. The gist of the method: as §1
Assay [19] deals with BT-474. The essentials: as §1

On to `CCCC(CCC)C(=O)O` [Valproic acid] (10000 nM), for which the normalised response in assay [1] turned out to be 95.9%; in assay [2], 100%; in assay [3], 95.9%; in assay [4], 111%; in assay [5] it was 102%; in assay [6], 98.2%. For the same molecule, the normalised response was 87% in assay [7]; 93.7% in assay [8]; 103% in assay [9]; 96.1% in assay [10]; 107% in assay [11]; 108% in [12]. For the same molecule, the normalised response in assay [13] stood at 95.3%; in [14], 99.3%; in assay [15] it was 106%; in [16], 87.8%; in assay [17], 105%; in assay [18], 96.1%. This molecule returned a normalised response in [19] of 102%.
